Counter-ions that a name gives are not always drawn.

The target in this assay is human tryptase. Nature of the assay: Inhibition of human tryptase (apparent dissociation constant, chromogenic substrate tos-Gly-Pro-arg-pNA). In kind it is biochemical. To be noted: apparent dissociation constant in presence of substrate; heparin 0.1–50 μg/ml; equilibrium conditions; read-out: Kiapp. From the text: The documented pathophysiological effects of mast cell tryptase are caused directly by the enzymatic activity of the protease. Accordingly, they are reduced or blocked by inhibitors which inhibit the enzymatic activity of the tryptase. A suitable measure for the affinity of a reversible inhibitor to the target protease is the equilibrium dissociation constant Ki of the enzyme-inhibitor complex. This Ki value can be determined via the effect of the inhibitor on the tryptase-induced cleavage of a chromogenic peptide-p-nitroanilide substrate or a fluorogenic peptide-aminomethylcoumarin substrate.
The dissociation constants for the tryptase-inhibitor complexes are determined under equilibrium conditions in accordance with the general proposals of Bieth (Bieth J G, Pathophysiological Interpretation of kinetic constants of protease inhibitors, Bull. Europ. Physiopath. Resp. 16:183–195, 1980) and the methods of Sommerhoff et al. (Sommerhoff C P et al., A Kazal-type inhibitor of human mast cell tryptase: Isolation from the medical leech Hirudo medicinalis, characterization, and sequence analysis, Biol. Chem. Hoppe-Seyler 375: 685–694, 1994).
Human tryptase is isolated from lung tissue or prepared recombinantly; the specific activity of the protease, determined by titration, is usually greater than 85% of the theoretical value. In the presence of heparin (0.1–50 μg/ml) for stabilizing the protease, constant amounts of the tryptase are incubated with increasing amounts of the inhibitors. After an equilibrium between the reaction partners has formed, the remaining enzyme activity after addition of the peptide-p-nitroanilide substrate tos-Gly-Pro-arg-pNA is determined and the cleavage of the latter is monitored at 405 nm for 3 min. Alternatively, the remaining enzymatic activity can also be determined using fluorogenic substrates. The apparent dissociation constants Kiapp (i.e. in the presence of substrate) are subsequently determined by adapting the enzyme rates to the general equation for reversible inhibitors (Morrison J F, Kinetics of the reversible inhibition of enzyme-catalyzed reactions by tight-binding inhibitors, Biochim. Biophys. Acta 185, 269–286, 1969) using non-linear regression: VI/V0=1−{Et+It+Kiapp−[(Et+It+Kiapp)^2−4EtIt]^1/2}/2Et VI and V0 are the rates in the presence and absence, respectively, of the inhibitor, and Et and It are the tryptase and inhibitor concentrations, respectively.
The apparent dissociation constants determined for the compounds according to the invention are shown in Table A below, where the numbers of the compounds correspond to the numbers of the compounds in the examples.
As to `NCc1cccc(CNC(=O)N2CCN(C(=O)OCC#CC#CCOC(=O)N3CCN(C(=O)NCc4cccc(CN)c4)CC3)CC2)c1` [Compound 7, 1,6-Bis-[4-(3-aminomethylbenzylaminocarbonyl)-1-piperazinylcarbonyl-1-oxy]-2,4-hexadiyne dihydrochloride], the Ki came to 8 nM.
Take `NCc1ccc(CNC(=O)N2CCN(C(=O)OCC#CC#CCOC(=O)N3CCN(C(=O)NCc4ccc(CN)cc4)CC3)CC2)cc1` [Compound 4, 1,6-Bis-[4-(4-aminomethylbenzylaminocarbonyl)-1-piperazinylcarbonyl-1-oxy]-2,4-hexadiyne dihydrochloride]: the Ki was 0.25 nM.
Next, `NCc1cccc(CNC(=O)N2CCN(C(=O)OCCCCC#CC#CCCCCOC(=O)N3CCN(C(=O)NCc4cccc(CN)c4)CC3)CC2)c1` [Compound 6, 1,12-Bis-[4-(3-aminomethylbenzylaminocarbonyl)-1-piperazinylcarbonyl-1-oxy]-5,7-dodecadiyne dihydrochloride]: 1.4 nM; `NCc1cccc(CNC(=O)N2CCN(C(=O)OCCOCC#CCOCCOC(=O)N3CCN(C(=O)NCc4cccc(CN)c4)CC3)CC2)c1` [Compound 3, 1,4-Bis-[4-(3-aminomethylbenzylaminocarbonyl)-1-piperazinylcarbonyl-1-oxyethyl-2-oxy]-2-butyne dihydrochloride]: 8 nM; `NCc1ccc(CNC(=O)N2CCN(C(=O)OCCOCC#CCOCCOC(=O)N3CCN(C(=O)NCc4ccc(CN)cc4)CC3)CC2)cc1` [Compound 2, 1,4-Bis-[4-(4-aminomethylbenzylaminocarbonyl)-1-piperazinylcarbonyl-1-oxyethyl-2-oxy]-2-butyne dihydrochloride]: 0.35 nM.
Next, `NCc1ccc(CNC(=O)N2CCN(C(=O)OCCCCC#CC#CCCCCOC(=O)N3CCN(C(=O)NCc4ccc(CN)cc4)CC3)CC2)cc1` [Compound 5, 1,12-Bis-[4-(4-aminomethylbenzylaminocarbonyl)-1-piperazinylcarbonyl-1-oxy]-5,7-dodecadiyne dihydrochloride]: 12 nM; `NC[C@H]1CC[C@H](C(=O)N2CCN(C(=O)OCCOCC#CCOCCOC(=O)N3CCN(C(=O)[C@H]4CC[C@H](CN)CC4)CC3)CC2)CC1` [Compound 1, 1,4-Bis-[4-(trans-4-aminomethylcyclohexylcarbonyl)-1-piperazinylcarbonyl-1-oxyethyl-2-oxy]-2-butyne dihydrochloride]: 86 nM.

(Values after patent US7015325B2, “Tryptase inhibitors” (ALTANA Pharma AG, priority 1999, dated 2006).)
